Results taken from ChEMBL document CHEMBL3739316, “Novel orally active inhibitors of β-1,3-glucan synthesis derived from enfumafungin” (Bioorg Med Chem Lett, 2015).
≈ marks a conversion by molar mass, not a printed value.

Legend:
Candida albicans [1] = test: Antifungal activity against Candida albicans MY1055 after 24 hrs by liquid microdilution assay in presence of human serum; assay type: functional; conditions: MY1055, 24 h
Aspergillus fumigatus = test: Antifungal activity against Aspergillus fumigatus MF5668 after 24 hrs by liquid microdilution assay; assay type: functional; conditions: MF5668, 24 h, read-out: MEC
Candida albicans [2] = test: Antifungal activity against Candida albicans MY1055 in DBA/2 mouse candidiasis model assessed as change in CFU per gram of kidney at 25 mg/kg, ip bid after 4 days by Target Organ Kidney Assay relative to sham treated control; assay type: functional
Candida albicans [3] = test: Antifungal activity against Candida albicans MY1055 in DBA/2 mouse candidiasis model assessed as change in CFU per gram of kidney at 6.25 mg/kg, ip bid after 4 days by Target Organ Kidney Assay relative to sham treated control; assay type: functional
Mus musculus [4] = test: Dose normalized AUC in orally dosed mouse; assay type: ADME, organism-based; conditions: in vivo, po
Candida albicans [5] = test: Antifungal activity against Candida albicans MY1055 in DBA/2 mouse candidiasis model assessed as change in CFU per gram of kidney at 12.5 mg/kg, ip bid after 4 days by Target Organ Kidney Assay relative to sham treated control; assay type: functional
Candida albicans [6] = test: Antifungal activity against Candida albicans MY1055 after 24 hrs by liquid microdilution assay; assay type: functional; conditions: MY1055, 24 h
Beta-1,3-glucan synthase = target: T1, Beta-1,3-glucan synthase (Candida albicans, UniProt O13383); test: Displacement of UDP-[3H]glucose from beta-1,3-glucan synthase in Candida albicans MY1055 microsomal membranes incubated for 2 hrs
T1 sequence (O13383 whole entry): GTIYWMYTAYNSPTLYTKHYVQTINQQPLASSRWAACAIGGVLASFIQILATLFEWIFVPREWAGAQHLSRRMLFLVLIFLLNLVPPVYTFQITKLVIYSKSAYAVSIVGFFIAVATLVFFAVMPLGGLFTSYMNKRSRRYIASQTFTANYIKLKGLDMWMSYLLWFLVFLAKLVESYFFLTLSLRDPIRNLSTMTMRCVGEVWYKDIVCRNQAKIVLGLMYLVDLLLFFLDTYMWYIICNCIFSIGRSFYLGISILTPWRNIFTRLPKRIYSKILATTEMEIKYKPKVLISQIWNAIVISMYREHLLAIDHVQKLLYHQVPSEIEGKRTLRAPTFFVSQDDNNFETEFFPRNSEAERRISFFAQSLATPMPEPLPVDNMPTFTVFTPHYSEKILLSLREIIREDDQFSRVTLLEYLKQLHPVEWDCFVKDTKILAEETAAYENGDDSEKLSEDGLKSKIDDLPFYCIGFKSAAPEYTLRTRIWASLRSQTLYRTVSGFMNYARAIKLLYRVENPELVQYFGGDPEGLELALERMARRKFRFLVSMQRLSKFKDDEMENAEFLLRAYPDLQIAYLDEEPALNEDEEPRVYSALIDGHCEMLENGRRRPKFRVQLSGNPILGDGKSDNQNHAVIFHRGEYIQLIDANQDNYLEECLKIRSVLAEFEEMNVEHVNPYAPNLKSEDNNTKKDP

[7] = Oral bioavailability in mouse; assay type: ADME, organism-based; conditions: in vivo
Candida albicans [8] = test: Antifungal activity against Candida albicans MY1055 in DBA/2 mouse candidiasis model assessed as change in CFU per gram of kidney at 12.5 mg/kg, po bid after 7 days by Target Organ Kidney Assay relative to sham treated control; assay type: functional
Candida albicans [9] = test: Antifungal activity against Candida albicans MY1055 in DBA/2N mouse candidiasis model assessed as mouse survival at 12.5 mg/kg, po bid after 7 days by Target Organ Kidney Assay relative to sham treated control; assay type: functional; conditions: 168 h
Candida albicans [10] = test: Antifungal activity against Candida albicans MY1055 in DBA/2 mouse candidiasis model assessed as change in CFU per gram of kidney at 6.25 mg/kg, po bid after 4 days by Target Organ Kidney Assay relative to sham treated control; assay type: functional
Mus musculus [11] = test: AUC (0 to 24 hrs) in DBA/2J mouse assessed as metabolite 13e at 10 mg/kg, po; assay type: ADME, organism-based; design: dose 10 mg/kg, time < 24 hr, route oral; conditions: in vivo
Mus musculus [12] = test: AUC (0 to 24 hrs) in DBA/2J mouse assessed as metabolite 13c at 10 mg/kg, po; assay type: ADME, organism-based; design: dose 10 mg/kg, time < 24 hr, route oral; conditions: in vivo
[13] = AUC (0 to 24 hrs) in DBA/2J mouse at 10 mg/kg, po; assay type: ADME, organism-based; design: dose 10 mg/kg, time < 24 hr, route oral; conditions: in vivo
Candida albicans [14] = test: Antifungal activity against Candida albicans MY1055 in DBA/2N mouse candidiasis model assessed as mouse survival at 12.5 mg/kg, ip bid after 7 days by Target Organ Kidney Assay relative to sham treated control; assay type: functional; conditions: 168 h
Mus musculus [15] = test: AUC (0 to 24 hrs) in DBA/2J mouse assessed as total metabolites at 10 mg/kg, po; assay type: ADME, organism-based; conditions: in vivo
Candida albicans [16] = test: Antifungal activity against Candida albicans MY1055 in DBA/2 mouse candidiasis model assessed as change in CFU per gram of kidney at 12.5 mg/kg, ip bid after 7 days by Target Organ Kidney Assay relative to sham treated control; assay type: functional
Candida albicans [17] = test: Antifungal activity against Candida albicans MY1055 in DBA/2 mouse candidiasis model assessed as change in CFU per gram of kidney at 12.5 mg/kg, po bid after 4 days by Target Organ Kidney Assay relative to sham treated control; assay type: functional
Candida albicans [18] = test: Antifungal activity against Candida albicans MY1055 in DBA/2 mouse candidiasis model assessed as change in CFU per gram of kidney at 25 mg/kg, po bid after 7 days by Target Organ Kidney Assay relative to sham treated control; assay type: functional
Candida albicans [19] = test: Antifungal activity against Candida albicans MY1055 in DBA/2N mouse candidiasis model assessed as reduction of fungal burden after 7 days; assay type: functional; conditions: MY1055, 168 h
Candida albicans [20] = test: Antifungal activity against Candida albicans MY1055 in DBA/2 mouse candidiasis model assessed as change in CFU per gram of kidney at 6.25 mg/kg, po bid after 7 days by Target Organ Kidney Assay relative to sham treated control; assay type: functional
Candida albicans [21] = test: Antifungal activity against Candida albicans MY1055 in DBA/2N mouse candidiasis model assessed as mouse survival at 6.25 mg/kg, po bid after 4 days by Target Organ Kidney Assay relative to sham treated control; assay type: functional; conditions: 96 h
Candida albicans [22] = test: Antifungal activity against Candida albicans MY1055 in DBA/2N mouse candidiasis model assessed as mouse survival at 25 mg/kg, po bid after 7 days by Target Organ Kidney Assay relative to sham treated control; assay type: functional; conditions: 168 h
Candida albicans [23] = test: Antifungal activity against Candida albicans MY1055 in DBA/2 mouse candidiasis model assessed as change in CFU per gram of kidney at 25 mg/kg, po bid after 4 days by Target Organ Kidney Assay relative to sham treated control; assay type: functional

## CC(=O)O[C@@H]1C[C@@]23COCC(C)([C@H]1OCCN)[C@@H]2CC[C@H]1C3=CC[C@@]2(C)[C@H](C(=O)O)[C@@](C)([C@H](C)C(C)C)CC[C@]12C
Candida albicans [1]
  MIC: 32 µg/mL
Aspergillus fumigatus
  minimal effective concentration: < 0.03 µg/mL
Candida albicans [2]
  Activity: -0.7 deltalog10CFU
Candida albicans [3]
  Activity: -0.3 deltalog10CFU
Mus musculus [4]
  AUC/dose: 0.54 µM·kg·h/mg
Candida albicans [5]
  Activity: -0.4 deltalog10CFU
Candida albicans [6]
  MIC: 1 µg/mL (≈ 1.74 µM)
Beta-1,3-glucan synthase
  IC50: 81.9 nM
[7]
  bioavailability: 24%

## CC(C)[C@@H](C)[C@@]1(C)CC[C@]2(C)[C@H]3CC[C@H]4C5(C)COC[C@@]4(C[C@@H](n4nnc(N)n4)[C@@H]5OC[C@@](C)(C(C)C)N(C)C)C3=CC[C@@]2(C)[C@@H]1C(=O)O
Candida albicans [8]
  Activity: -2.38 deltalog10CFU
Candida albicans [1]
  MIC: 8 µg/mL
Aspergillus fumigatus
  minimal effective concentration: < 0.03 µg/mL
Candida albicans [9]
  survival at 12.5 mg/kg: 100%
Candida albicans [10]
  Activity: -0.7 deltalog10CFU
Mus musculus [11]
  AUC: 1.23 µM·h
Mus musculus [12]
  AUC: 0.11 µM·h
[13]
  AUC(0-t) at 24 h: 1.27 µM·h
Candida albicans [14]
  survival at 12.5 mg/kg: 100%
Mus musculus [15]
  Drug uptake: 51.3%
Candida albicans [16]
  Activity: -3.36 deltalog10CFU
Mus musculus [4]
  AUC/dose: 0.15 µM·kg·h/mg
Candida albicans [17]
  Activity: -2.5 deltalog10CFU
Candida albicans [18]
  Activity: -2.75 deltalog10CFU
Candida albicans [19]
  ED99: 9 mg/kg
Candida albicans [20]
  Activity: -1.19 deltalog10CFU
Candida albicans [21]
  survival at 6.25 mg/kg: 40%
Candida albicans [22]
  survival at 25 mg/kg: 100%
Candida albicans [6]
  MIC: 0.25 µg/mL (≈ 0.366 µM)
Candida albicans [23]
  Activity: -2.6 deltalog10CFU
Beta-1,3-glucan synthase
  IC50: 13.2 nM
[7]
  bioavailability: 17%
